{"source": "patent US20210186947A1", "about": "“TOMM6-INTERACTING EXTRACTS AND COMPOUNDS FOR USE IN THE TREATMENT AND PROPHYLAXIS OF NERVOUS SYSTEM DISEASES, ATHEROSCLEROSIS, HEPATITIS B INFECTION AND HUMAN PAPILLOMA VIRUS (HPV) INFECTION” (ETH ZURICH, priority 2018, published 2021)", "key": {"[1]": {"system": "HBsAg (hepatitis B virus major surface antigen)", "experiment": "HBsAg aggregation in yeast, immunoblot detection of HBsAg", "format": "cell-based", "details": "alizarin 10 microg/ml and 1 microg/ml (FIG. 16D)", "text": "Recombinant HBsAg cDNA (synthesized by GeneScript, Piscataway, N.J., USA) was inserted into the expression vector p42K-TEF (D3011001-1 Dualsystems Biotech AG, Zurich). Yeast transformants were selected in the presence of G418 in the yeast growth medium (YPD; Bacto-yeast extract 10 g/L, Bacto-peptone 20 g/L and D-Glucose […]). Yeast (Saccharomyces cerevisae) strain INVSc1 was used (Invitrogen GmbH, Nr. C810-00). After 3-4 days of cultivation to allow for protein expression, yeast cells were harvested by centrifugation, followed by washing with ice-cold PBS. The yeast cell pellet was immediately frozen at −70° C. Proteins were extracted for 30 min. at 4° C. with solubilization buffer (1% sodium deoxycholate, 0.1% SDS, 0.1% NP40, 5 mM EDTA, 50 mM Tris, pH 8.0) supplemented with protease/phosphatase inhibitors (Cat. No. P8349, and/or PPC1010, Sigma-Aldrich, St. Louis, Mo., USA). […] Protein were separated by urea-containing SDS-PAGE (7.5-10%) under reducing conditions, transferred to PVDF membranes by electrophoretic protein transfer in a tank transfer cell (Mini Trans-Blot cell, Bio-Rad GmbH, Munchen, Germany), and transferred HBsAg proteins were detected in immunoblot with HBsAg-specific antibodies raised in rabbit against an N-terminal epitope of HBsAg, or by a monoclonal HBsAg antibody produced in mouse (SAB4700767, Sigma-Aldrich, St. Louis, Mo., USA). […]"}, "PHF-tau": {"system": "PHF-tau", "experiment": "Hippocampal PHF-tau in the Tg-TauP301L model of tauopathy (AT8 antibody)", "format": "in vivo", "details": "12-month-old Tg-Tau-P301L mice treated for six months"}}}
{"smiles": "O=C1c2ccccc2C(=O)c2c1ccc(O)c2O", "note": "[Compound-1, 1,2-dihydroxyanthraquinone]", "values": [{"measurement": "aggregation and assembly of HBsAg", "setting": "[1]", "value": "inhibited the aggregation and assembly of HBsAg"}, {"measurement": "hippocampal content of PHF-tau", "setting": "PHF-tau", "value": "significantly decreased hippocampal content of PHF-tau"}]}
